Laboratory results: ChEMBL document CHEMBL1201862, “PubChem BioAssay data set” (2004)
Calls of active or inactive are those of the source.

Experiments:
HeLa = test: HeLa cell cytotoxicity, dose response, cytotoxicity control for MITF activator project, CellTiter-Glo luminescence, cherry-pick samples (AID 540259); format: functional, cell-based; conditions: Homo sapiens
[1] = target: T1, Short transient receptor potential channel 4 (Mus musculus, UniProt Q9QUQ5); test: mouse TRPC4 channel inhibitors, dose response, cell-based, HEK293 TRPC4/mu-opioid, Fluo-4 calcium (AID 434942); format: functional;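 note: potency of inhibitors blocking the TRPC4 calcium response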
T1 sequence (Q9QUQ5 whole entry): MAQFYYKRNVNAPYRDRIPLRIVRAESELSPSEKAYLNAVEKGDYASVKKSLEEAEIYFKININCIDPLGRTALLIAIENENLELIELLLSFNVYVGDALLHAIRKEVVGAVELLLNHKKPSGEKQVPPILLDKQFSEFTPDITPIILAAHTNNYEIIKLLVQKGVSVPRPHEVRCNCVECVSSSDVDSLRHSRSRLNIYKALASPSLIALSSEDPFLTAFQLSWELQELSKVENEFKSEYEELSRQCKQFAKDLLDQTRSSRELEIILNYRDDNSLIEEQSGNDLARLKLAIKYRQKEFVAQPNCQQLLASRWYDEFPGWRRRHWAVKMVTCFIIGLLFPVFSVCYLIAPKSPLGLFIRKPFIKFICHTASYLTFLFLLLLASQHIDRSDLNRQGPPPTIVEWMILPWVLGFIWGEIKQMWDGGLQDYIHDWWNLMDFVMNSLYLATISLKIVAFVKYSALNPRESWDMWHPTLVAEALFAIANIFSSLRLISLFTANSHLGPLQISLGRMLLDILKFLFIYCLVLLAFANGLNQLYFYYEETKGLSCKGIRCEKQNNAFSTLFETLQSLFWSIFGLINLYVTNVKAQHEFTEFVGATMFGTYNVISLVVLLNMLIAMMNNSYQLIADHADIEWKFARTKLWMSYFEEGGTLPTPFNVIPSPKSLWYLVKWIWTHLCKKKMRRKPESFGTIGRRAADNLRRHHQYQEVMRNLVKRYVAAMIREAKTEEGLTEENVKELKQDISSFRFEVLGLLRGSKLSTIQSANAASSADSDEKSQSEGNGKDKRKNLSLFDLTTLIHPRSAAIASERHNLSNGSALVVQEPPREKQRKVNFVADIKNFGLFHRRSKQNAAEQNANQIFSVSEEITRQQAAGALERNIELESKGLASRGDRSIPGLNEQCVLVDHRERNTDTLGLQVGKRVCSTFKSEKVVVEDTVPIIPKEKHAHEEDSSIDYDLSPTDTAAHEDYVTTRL

Coagulation factor XII = target: T2, Coagulation factor XII (Homo sapiens, UniProt P00748); format: functional;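 note: activated factor XIIa alpha cleaving a fluorogenic AMC peptide substrate; inhibitor potency from loss of enzyme activity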
T2 sequence (P00748 whole entry): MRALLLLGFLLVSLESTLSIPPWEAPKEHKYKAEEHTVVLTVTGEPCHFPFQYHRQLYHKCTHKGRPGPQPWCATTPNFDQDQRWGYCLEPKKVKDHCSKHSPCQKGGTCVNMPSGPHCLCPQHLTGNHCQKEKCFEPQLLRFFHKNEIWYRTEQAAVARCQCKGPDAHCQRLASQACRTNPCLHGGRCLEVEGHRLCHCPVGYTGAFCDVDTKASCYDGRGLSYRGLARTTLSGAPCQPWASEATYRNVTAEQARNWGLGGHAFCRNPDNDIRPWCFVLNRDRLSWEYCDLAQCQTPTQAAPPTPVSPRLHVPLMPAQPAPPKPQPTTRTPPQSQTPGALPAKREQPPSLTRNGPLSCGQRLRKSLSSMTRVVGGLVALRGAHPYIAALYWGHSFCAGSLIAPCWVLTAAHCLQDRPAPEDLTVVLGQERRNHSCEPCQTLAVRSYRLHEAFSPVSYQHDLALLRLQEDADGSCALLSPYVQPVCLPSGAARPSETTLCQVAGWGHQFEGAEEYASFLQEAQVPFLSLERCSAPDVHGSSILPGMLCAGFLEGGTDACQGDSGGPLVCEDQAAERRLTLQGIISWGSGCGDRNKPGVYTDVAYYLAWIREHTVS

[2] = target: NAD-dependent protein deacylase sirtuin-5, mitochondrial (Homo sapiens, UniProt Q9NXA8); test: SIRT5 desuccinylase inhibitors, dose response, biochemical, fluorescence imaging, cherry-pick, set 5 (AID 720591);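 note: desuccinylation of succinyl peptide AMC substrate read as fluorescence after trypsin release; potency of inhibitors that lower fluorescence and may act on trypsin instead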
Vero [3] = test: cells; format: functional, cell-based; conditions: Chlorocebus sabaeus
Vero [4] = test: cells; format: functional; conditions: Chlorocebus sabaeus
[5] = target: Glucose-6-phosphate 1-dehydrogenase (Homo sapiens, UniProt P11413); test: human G6PD enzyme inhibitors, dose response, selectivity assay for P. falciparum G6PD inhibitor project, biochemical, fluorescence (AID 504792); format: functional
[6] = target: T3, C-C chemokine receptor type 6 (Homo sapiens, UniProt P51684); test: CCR6 receptor antagonists, dose response, cell-based, luminescent beta-arrestin readout (AID 504728); format: functional
T3 sequence (P51684 whole entry): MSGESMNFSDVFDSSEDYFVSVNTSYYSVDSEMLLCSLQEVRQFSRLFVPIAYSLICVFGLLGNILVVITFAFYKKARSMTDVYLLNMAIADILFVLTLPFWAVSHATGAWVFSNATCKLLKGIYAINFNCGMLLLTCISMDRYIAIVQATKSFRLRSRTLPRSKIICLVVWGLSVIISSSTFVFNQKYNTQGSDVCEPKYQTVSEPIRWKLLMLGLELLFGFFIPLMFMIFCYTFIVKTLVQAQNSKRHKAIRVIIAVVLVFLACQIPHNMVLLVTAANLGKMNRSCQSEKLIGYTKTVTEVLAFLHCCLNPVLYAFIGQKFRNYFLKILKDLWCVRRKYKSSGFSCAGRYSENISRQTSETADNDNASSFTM

Beta-galactosidase = Beta-galactosidase (Escherichia coli, UniProt Q8VNN2); test: beta-galactosidase enzyme inhibitors and activators, dose response, artefact control for CCR6 antagonist project, biochemical, E. coli enzyme, set 3 (AID 504712); format: functional
Chain of Beta-galactosidase (Q8VNN2 whole entry): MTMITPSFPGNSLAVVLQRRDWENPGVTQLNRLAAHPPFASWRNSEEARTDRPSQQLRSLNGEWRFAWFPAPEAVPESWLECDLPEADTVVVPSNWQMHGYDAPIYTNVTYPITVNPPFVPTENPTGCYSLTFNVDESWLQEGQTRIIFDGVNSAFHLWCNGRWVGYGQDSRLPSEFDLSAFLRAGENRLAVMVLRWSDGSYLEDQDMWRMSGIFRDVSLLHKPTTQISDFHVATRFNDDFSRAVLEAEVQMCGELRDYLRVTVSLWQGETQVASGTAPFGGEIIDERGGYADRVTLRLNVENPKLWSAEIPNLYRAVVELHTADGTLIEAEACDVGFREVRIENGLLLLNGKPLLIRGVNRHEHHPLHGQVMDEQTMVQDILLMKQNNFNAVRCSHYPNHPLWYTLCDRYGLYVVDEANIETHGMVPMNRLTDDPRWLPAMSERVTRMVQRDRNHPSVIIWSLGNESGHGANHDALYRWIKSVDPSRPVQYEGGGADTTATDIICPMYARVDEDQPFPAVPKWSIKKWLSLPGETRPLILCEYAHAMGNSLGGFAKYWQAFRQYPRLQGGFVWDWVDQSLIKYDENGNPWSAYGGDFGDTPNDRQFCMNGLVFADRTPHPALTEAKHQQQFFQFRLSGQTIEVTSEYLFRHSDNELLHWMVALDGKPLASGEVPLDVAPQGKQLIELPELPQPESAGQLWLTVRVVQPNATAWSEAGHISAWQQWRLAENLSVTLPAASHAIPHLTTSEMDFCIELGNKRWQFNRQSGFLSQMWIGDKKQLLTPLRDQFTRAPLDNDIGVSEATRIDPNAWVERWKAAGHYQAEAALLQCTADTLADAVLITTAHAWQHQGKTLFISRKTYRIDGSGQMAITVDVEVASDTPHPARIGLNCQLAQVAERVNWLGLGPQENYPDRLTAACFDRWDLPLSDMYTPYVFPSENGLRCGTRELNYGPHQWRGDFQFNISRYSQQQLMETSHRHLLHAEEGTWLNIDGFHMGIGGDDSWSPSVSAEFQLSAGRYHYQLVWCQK

[7] = target: Heat shock protein HSP 90-alpha (Homo sapiens, UniProt P07900); format: functional, organism-based
[8] = target: T4, DNA dC->dU-editing enzyme APOBEC-3G (Homo sapiens, UniProt Q9HC16); test: Dose Response confirmation of small molecule APOBEC3G DNA Deaminase Inhibitors via a fluorescence-based single-stranded DNA deaminase assay. [Related pubchem assays (depositor defined):AID493012, AID493028]; format: functional
T4 sequence (Q9HC16 whole entry): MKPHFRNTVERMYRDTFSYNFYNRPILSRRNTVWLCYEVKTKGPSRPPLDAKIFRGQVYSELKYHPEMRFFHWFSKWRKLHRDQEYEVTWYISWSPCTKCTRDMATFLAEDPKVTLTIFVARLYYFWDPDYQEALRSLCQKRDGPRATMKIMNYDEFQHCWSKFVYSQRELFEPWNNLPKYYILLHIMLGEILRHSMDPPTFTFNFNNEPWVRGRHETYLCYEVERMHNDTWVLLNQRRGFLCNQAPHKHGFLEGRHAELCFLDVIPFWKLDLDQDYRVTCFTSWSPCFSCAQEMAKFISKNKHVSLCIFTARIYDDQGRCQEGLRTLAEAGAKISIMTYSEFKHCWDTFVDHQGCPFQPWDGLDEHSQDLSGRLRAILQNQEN

Cysteine protease ATG4B = target: T5, Cysteine protease ATG4B (Homo sapiens, UniProt Q9Y4P1); format: functional;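 note: Fluorescence-based dose-response confirmation assay measuring inhibition of ATG4B activity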
T5 sequence (Q9Y4P1 whole entry): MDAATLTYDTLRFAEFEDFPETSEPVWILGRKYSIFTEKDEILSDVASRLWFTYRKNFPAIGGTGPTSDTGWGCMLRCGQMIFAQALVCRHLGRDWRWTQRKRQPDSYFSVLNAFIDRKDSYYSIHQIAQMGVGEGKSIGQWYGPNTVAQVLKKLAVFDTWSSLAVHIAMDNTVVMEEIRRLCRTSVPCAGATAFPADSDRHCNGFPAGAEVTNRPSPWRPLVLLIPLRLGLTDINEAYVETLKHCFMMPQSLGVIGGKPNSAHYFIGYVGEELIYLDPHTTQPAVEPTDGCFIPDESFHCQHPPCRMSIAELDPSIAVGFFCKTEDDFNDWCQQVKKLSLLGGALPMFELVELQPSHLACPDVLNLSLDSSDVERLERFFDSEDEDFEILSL

Phospholipase A2 = Phospholipase A2 (Homo sapiens, UniProt P04054); format: functional;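 note: confirmatory dose-response counterscreen on phospholipase A2, testing hits that came from an ultra-high-throughput screen for ATG4B inhibitors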
[9] = target: Dual specificity tyrosine-phosphorylation-regulated kinase 1A (Rattus norvegicus, UniProt Q63470); format: biochemical, Homo sapiens
Cytochrome P450 3A4 = Cytochrome P450 3A4 (Homo sapiens, UniProt P08684);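 note: CYP3A4 tested as one member of a cytochrome P450 panel screen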
Chain of Cytochrome P450 3A4 (P08684 whole entry): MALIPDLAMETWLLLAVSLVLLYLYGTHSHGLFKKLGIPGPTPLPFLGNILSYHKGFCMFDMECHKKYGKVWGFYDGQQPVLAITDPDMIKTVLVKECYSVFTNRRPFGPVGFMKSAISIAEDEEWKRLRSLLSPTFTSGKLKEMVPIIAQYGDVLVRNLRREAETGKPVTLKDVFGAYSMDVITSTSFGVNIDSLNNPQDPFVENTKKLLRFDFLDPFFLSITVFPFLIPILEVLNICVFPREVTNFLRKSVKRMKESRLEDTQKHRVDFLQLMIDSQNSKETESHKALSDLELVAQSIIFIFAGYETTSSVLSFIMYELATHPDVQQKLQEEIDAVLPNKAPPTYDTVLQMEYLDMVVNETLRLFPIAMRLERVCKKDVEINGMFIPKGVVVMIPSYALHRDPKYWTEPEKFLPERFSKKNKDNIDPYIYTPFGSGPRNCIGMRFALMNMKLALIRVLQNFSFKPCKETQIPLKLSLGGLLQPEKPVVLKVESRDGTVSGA

Vero [10] = test: host cell cytotoxicity of antiviral hits, dose response, cytotoxicity control for West Nile virus antiviral project, secondary assay (AID 1650); format: functional; conditions: Chlorocebus sabaeus
[11] = target: DNA dC->dU-editing enzyme APOBEC-3A (Homo sapiens, UniProt P31941); test: Dose Response confirmation of small molecule APOBEC3A DNA Deaminase Inhibitors via a fluorescence-based single-stranded DNA deaminase assay. [Related pubchem assays (depositor defined):AID493011, AID493024]; format: functional
[12] = target: T4, DNA dC->dU-editing enzyme APOBEC-3G; format: functional
[13] = target: T6, Voltage-gated N-type calcium channel alpha-1B subunit/Amyloid beta A4 precursor protein-binding family A member 1 (Homo sapiens, UniProt Q00975+Q02410); format: protein assay
T6 sequence (Q00975 whole entry): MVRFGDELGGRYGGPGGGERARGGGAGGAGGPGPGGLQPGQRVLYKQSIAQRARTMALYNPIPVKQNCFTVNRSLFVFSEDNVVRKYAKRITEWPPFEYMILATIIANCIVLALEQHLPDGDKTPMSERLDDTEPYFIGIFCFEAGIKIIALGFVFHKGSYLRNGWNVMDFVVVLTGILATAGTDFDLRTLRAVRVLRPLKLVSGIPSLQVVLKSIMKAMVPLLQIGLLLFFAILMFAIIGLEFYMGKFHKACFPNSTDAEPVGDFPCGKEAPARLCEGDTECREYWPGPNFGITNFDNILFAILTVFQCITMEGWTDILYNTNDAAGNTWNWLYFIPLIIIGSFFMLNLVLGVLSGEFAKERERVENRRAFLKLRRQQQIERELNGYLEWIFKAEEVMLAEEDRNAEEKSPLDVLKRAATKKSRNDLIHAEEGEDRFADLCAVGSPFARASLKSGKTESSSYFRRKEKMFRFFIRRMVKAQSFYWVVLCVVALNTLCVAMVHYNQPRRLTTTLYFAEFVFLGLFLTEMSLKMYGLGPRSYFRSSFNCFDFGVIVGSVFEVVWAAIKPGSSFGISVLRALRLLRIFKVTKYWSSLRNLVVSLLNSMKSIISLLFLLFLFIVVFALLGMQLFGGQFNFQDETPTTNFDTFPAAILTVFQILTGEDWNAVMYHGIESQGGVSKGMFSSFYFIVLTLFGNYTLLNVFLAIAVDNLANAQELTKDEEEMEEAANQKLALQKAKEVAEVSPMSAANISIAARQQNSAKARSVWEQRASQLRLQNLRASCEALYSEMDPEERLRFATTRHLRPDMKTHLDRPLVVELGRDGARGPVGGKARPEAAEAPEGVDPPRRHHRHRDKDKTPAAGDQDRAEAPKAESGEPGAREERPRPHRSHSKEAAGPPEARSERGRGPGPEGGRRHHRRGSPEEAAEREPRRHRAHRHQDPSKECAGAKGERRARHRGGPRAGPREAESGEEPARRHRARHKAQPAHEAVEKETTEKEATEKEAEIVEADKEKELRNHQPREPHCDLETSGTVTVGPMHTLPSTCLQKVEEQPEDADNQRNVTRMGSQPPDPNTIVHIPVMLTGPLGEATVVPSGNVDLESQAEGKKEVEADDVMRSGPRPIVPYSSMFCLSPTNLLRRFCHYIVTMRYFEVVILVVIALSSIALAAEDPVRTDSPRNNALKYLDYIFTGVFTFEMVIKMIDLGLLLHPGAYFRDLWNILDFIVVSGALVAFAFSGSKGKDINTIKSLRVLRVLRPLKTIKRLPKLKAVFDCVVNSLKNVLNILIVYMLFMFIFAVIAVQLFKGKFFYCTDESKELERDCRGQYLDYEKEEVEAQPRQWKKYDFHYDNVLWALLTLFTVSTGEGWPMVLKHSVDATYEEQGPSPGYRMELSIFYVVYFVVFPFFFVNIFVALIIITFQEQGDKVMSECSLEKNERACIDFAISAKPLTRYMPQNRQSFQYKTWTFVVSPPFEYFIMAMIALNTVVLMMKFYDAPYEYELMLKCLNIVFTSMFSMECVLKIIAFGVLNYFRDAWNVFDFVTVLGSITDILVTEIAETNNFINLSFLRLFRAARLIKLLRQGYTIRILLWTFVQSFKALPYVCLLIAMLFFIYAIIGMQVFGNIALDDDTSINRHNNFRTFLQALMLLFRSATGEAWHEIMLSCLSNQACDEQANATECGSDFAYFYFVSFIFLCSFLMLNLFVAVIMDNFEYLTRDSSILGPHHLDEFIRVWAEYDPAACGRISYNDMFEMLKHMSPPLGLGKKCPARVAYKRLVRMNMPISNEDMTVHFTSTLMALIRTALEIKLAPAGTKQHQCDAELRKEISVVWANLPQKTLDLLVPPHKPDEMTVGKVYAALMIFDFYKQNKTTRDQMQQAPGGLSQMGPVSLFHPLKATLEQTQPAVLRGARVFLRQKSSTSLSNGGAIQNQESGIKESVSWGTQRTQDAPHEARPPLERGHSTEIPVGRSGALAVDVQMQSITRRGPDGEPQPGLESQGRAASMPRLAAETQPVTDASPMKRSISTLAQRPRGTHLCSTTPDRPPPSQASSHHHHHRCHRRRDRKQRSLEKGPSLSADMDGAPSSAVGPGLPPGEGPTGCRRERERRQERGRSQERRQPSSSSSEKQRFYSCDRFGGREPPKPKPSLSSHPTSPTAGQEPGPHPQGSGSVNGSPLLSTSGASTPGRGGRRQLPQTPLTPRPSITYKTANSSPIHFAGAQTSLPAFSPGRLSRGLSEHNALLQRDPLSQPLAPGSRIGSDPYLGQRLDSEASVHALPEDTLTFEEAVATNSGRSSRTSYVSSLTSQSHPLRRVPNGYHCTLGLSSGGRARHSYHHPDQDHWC
T6 sequence (Q02410 whole entry): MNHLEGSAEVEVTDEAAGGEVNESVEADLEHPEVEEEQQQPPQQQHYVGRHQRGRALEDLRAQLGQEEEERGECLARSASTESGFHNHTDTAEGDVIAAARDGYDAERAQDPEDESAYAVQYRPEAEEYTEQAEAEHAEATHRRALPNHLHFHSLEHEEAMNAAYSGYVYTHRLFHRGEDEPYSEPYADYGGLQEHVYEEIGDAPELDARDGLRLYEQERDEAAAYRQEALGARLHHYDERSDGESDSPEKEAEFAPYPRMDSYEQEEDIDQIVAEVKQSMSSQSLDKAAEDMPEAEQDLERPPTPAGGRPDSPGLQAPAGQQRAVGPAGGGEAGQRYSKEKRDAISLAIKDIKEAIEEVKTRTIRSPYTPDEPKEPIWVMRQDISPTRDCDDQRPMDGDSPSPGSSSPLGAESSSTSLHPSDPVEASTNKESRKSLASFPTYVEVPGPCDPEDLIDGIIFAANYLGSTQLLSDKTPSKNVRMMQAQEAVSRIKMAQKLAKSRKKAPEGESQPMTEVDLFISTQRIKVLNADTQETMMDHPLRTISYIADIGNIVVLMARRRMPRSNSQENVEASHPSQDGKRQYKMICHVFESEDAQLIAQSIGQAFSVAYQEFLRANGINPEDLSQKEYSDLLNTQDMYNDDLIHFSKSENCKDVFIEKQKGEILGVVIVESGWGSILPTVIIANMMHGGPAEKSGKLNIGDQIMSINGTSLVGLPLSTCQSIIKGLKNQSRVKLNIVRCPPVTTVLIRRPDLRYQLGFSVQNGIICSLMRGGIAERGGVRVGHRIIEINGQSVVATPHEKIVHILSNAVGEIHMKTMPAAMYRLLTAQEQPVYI

[14] = target: T6, Voltage-gated N-type calcium channel alpha-1B subunit/Amyloid beta A4 precursor protein-binding family A member 1; format: protein assay; remark: listed apart in the source
[15] = inhibitors of firefly luciferase expression or activity, dose response, H4 neuroglioma cells, luminescence (AID 1990); format: functional, cell-based
[16] = Luminescence Cell-Based Dose Response HTS to Identify Inhibitors of 5'UTR Stem-Loop Driven Prion Protein mRNA Translation in H4 Neuroglioblastoma Cells. [Related pubchem assays: 1827 (Project Summary), 1813 (Primary HTS)]; format: functional
[17] = inhibitors of SNCA 5'UTR-driven reporter translation, confirmation, H4 neuroglioma cells, luminescence (AID 1988); format: functional, cell-based
[18] = growth suppression of PTEN-null colon cells, dose response, cell-based, HCT116 PTEN knockout (AID 1047); format: functional;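 note: HCT116 colon tumor cells with PTEN knocked out; cells exposed to compound for 60 hours before readout; potency for loss of cell viability measured by luminescence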
[19] = growth suppression of beta-catenin-knockout colon cells, dose response, cell-based, HCT116, human colon tumor (AID 1045); format: functional;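 note: HCT116 colon tumor cells with beta catenin knocked out; cells exposed to compound for 60 hours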
[20] = target: T7, Ubiquitin-conjugating enzyme E2 N (Homo sapiens, UniProt P61088); format: functional;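 note: Dose-response confirmation in a TR-FRET assay detecting UBC13-driven polyubiquitin chain formation, inhibition measured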
T7 sequence (P61088 whole entry): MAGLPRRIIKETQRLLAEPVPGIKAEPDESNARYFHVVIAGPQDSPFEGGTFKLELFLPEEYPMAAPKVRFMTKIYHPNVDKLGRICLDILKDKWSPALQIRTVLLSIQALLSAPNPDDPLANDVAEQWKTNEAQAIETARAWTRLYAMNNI

Cytochrome P450 2C9 = Cytochrome P450 2C9 (Homo sapiens, UniProt P11712)

Cc1ccc(NC(=O)c2sc3nc(C)cc(C)c3c2N)cc1
AC50 (HeLa): 213 µM (active)

CC12CCC(C/C1=N/OC(=O)c1cccc([N+](=O)[O-])c1)C2(C)C (configuration not stated)
EC50 [1]: 0.531 µM (active)

O=S(=O)([N-]c1nc2ccccc2nc1-[n+]1ccn(Cc2ccccc2)c1)c1ccc(Cl)cc1
IC50 (Coagulation factor XII): > 50 µM (inactive) | AC50 [2]: 24.8 µM (active)

Cc1ccc(Nc2ncc(C(=O)NCCCN3CCN(C)CC3)c3ccccc23)cc1Cl
IC50 (Vero [3]): 22.7 µM (active) | CC50 (Vero [4]): > 25 µM (active)

CCC(=O)OCOc1ccc(/C=C2/CCC(CN(C)C)C2=O)cc1 (configuration not stated)
IC50 [5]: > 80 µM (inactive) | IC50 [6]: 15.5 µM (active) | IC50 (Beta-galactosidase): > 66.6 µM (inactive) | AC50 [7]: 2.85 µM (active)

CCOC(=O)c1c(N)sn(-c2ccccc2C)c1=S
IC50 [8]: 45.6 µM (active)

CN(C)c1cccc(C(=O)n2cc(C(=O)c3cc(F)ccc3O)cn2)c1
IC50 (Coagulation factor XII): 12.4 µM (active) | IC50 (Cysteine protease ATG4B): 7.59 µM (active) | IC50 (Phospholipase A2): 9.78 µM (active)

CCN(CC)c1c([N+](=O)[O-])c(=O)sc2ccccc12
AC50 [9]: > 120 µM (inactive)

N#C/C(=C\c1ccc(-c2cccc([N+](=O)[O-])c2)o1)C(=O)Nc1nc(-c2cccs2)cs1
IC50 [6]: > 66.6 µM (inactive) | IC50 (Beta-galactosidase): > 66.6 µM (inactive)

O=C1CCCc2ccccc2N1Cc1ccccc1Cl
AC50 (Cytochrome P450 3A4): inconclusive

COc1cccc(CNC(=O)CCC2CCCN(Cc3cc(Cl)ccc3O)C2)c1 (configuration not stated)
EC50 [1]: 2.11 µM (active)

O=C(NCc1ccncc1)c1ccc(Br)o1
IC50 (Coagulation factor XII): > 50 µM (inactive)

CC1(C)COC(/C=C/c2ccc([N+](=O)[O-])cc2)=N1
CC50 (Vero [10]): 10.2 µM (active) | IC50 (Vero [3]): > 25 µM (active) | CC50 (Vero [4]): 12.4 µM (active)

O=[N+]([O-])c1cc2c(cc1/C=N/Nc1nc(O)c3ccccc3n1)OCO2
IC50 [11]: 3.63 µM (active) | IC50 [12]: 4.7 µM (active)

Cn1cc(Cl)c(C(=O)Nc2nc3ccc([N+](=O)[O-])cc3s2)n1
IC50 [13]: 5.21 µM (active) | IC50 [14]: > 50 µM (inactive)

CCCCn1cnc2sc(-c3ccccc3)cc2c1=O
AC50 (HeLa): 111 µM (active)

CCCn1c(C)c(C(=O)c2ccc3ccccc3c2)c2ccccc21
AC50 (Cytochrome P450 3A4): inconclusive

c1cc2c(cc1C1CCCCC1)c1c3n2CCCNC3CCC1 (configuration not stated)
EC50 [15]: > 120 µM (not active) | EC50 [16]: 71.1 µM (active) | EC50 [17]: 18 µM (active) | EC50 [18]: 5.92 µM (active) | EC50 [19]: 4.46 µM (active) | IC50 [6]: 19.8 µM (active) | IC50 [20]: > 20 µM (inactive) | IC50 (Beta-galactosidase): > 66.6 µM (inactive)

CC(=O)Nc1ccc(NC(=O)c2ccc(NC(=O)c3ccccc3)cc2)cc1
IC50 [13]: 6.5 µM (active) | IC50 [14]: > 50 µM (inactive)

Cc1ccc(OCc2cc(C(=O)N3C[C@H]4C[C@H]5C[C@@H](C4)C[C@H]3C5)no2)cc1C
AC50 (HeLa): 151 µM (active)

CCOC(=O)/C(C#N)=C\N(C)C
AC50 (Cytochrome P450 2C9): 39.8 µM (inconclusive) | AC50 (Cytochrome P450 3A4): inconclusive
